Numbers after ± are expanded uncertainties.
Tests used:
[1] = refractive index (Na D-line) (dimensionless); details: 298.15 K; 100 kPa; Liquid; Standard Abbe refractometry
[2] = relative permittivity at zero frequency (dimensionless); xn = mol fraction of the nth substance listed; details: 298.15 K, Liquid, Parallel plate capacitor

OCCO [1,2-ethanediol]
refractive index [1]: 1.4304 ± 0.0008

OCCO [1,2-ethanediol] + O
relative permittivity at zero frequency ([2]; 100 kPa, x1 = 0.2): 65.26 ± 0.14 | relative permittivity at zero frequency ([2]; 100 kPa, x1 = 0.4): 56.38 ± 0.12 | relative permittivity at zero frequency ([2]; 100 kPa, x1 = 0.6): 49.73 ± 0.11 | relative permittivity at zero frequency ([2]; 100 kPa, x1 = 0.8): 44.76 ± 0.1 | relative permittivity at zero frequency ([2]; 50000 kPa, x1 = 0.2): 66.72 ± 0.14 | relative permittivity at zero frequency ([2]; 50000 kPa, x1 = 0.4): 57.74 ± 0.12 | relative permittivity at zero frequency ([2]; 50000 kPa, x1 = 0.6): 50.99 ± 0.11 | relative permittivity at zero frequency ([2]; 50000 kPa, x1 = 0.8): 45.95 ± 0.1 | relative permittivity at zero frequency ([2]; 100000 kPa, x1 = 0.2): 68.04 ± 0.14 | relative permittivity at zero frequency ([2]; 100000 kPa, x1 = 0.4): 58.96 ± 0.13 | relative permittivity at zero frequency ([2]; 100000 kPa, x1 = 0.6): 52.14 ± 0.11 | relative permittivity at zero frequency ([2]; 100000 kPa, x1 = 0.8): 47.04 ± 0.1 | relative permittivity at zero frequency ([2]; 150000 kPa, x1 = 0.2): 69.3 ± 0.15 | relative permittivity at zero frequency ([2]; 150000 kPa, x1 = 0.4): 60.14 ± 0.13 | relative permittivity at zero frequency ([2]; 150000 kPa, x1 = 0.6): 53.21 ± 0.11 | relative permittivity at zero frequency ([2]; 150000 kPa, x1 = 0.8): 48.05 ± 0.1 | relative permittivity at zero frequency ([2]; 200000 kPa, x1 = 0.2): 70.47 ± 0.15 | relative permittivity at zero frequency ([2]; 200000 kPa, x1 = 0.4): 61.19 ± 0.13 | relative permittivity at zero frequency ([2]; 200000 kPa, x1 = 0.6): 54.2 ± 0.12 | relative permittivity at zero frequency ([2]; 200000 kPa, x1 = 0.8): 49 ± 0.1 | relative permittivity at zero frequency ([2]; 250000 kPa, x1 = 0.2): 71.6 ± 0.15 | relative permittivity at zero frequency ([2]; 250000 kPa, x1 = 0.4): 62.23 ± 0.13 | relative permittivity at zero frequency ([2]; 250000 kPa, x1 = 0.6): 55.15 ± 0.12 | relative permittivity at zero frequency ([2]; 250000 kPa, x1 = 0.8): 49.89 ± 0.11 | relative permittivity at zero frequency ([2]; 300000 kPa, x1 = 0.2): 72.68 ± 0.15 | relative permittivity at zero frequency ([2]; 300000 kPa, x1 = 0.4): 63.22 ± 0.13 | relative permittivity at zero frequency ([2]; 300000 kPa, x1 = 0.6): 56.06 ± 0.12 | relative permittivity at zero frequency ([2]; 300000 kPa, x1 = 0.8): 50.72 ± 0.11

OCC(O)CO [glycerol]
refractive index [1]: 1.4722 ± 0.0008

OCC(O)CO [glycerol] + O
relative permittivity at zero frequency ([2]; 100 kPa, x1 = 0.2): 63.79 ± 0.14 | relative permittivity at zero frequency ([2]; 100 kPa, x1 = 0.4): 55.26 ± 0.12 | relative permittivity at zero frequency ([2]; 100 kPa, x1 = 0.6): 49.52 ± 0.11 | relative permittivity at zero frequency ([2]; 100 kPa, x1 = 0.8): 45.48 ± 0.1 | relative permittivity at zero frequency ([2]; 50000 kPa, x1 = 0.2): 65.05 ± 0.14 | relative permittivity at zero frequency ([2]; 50000 kPa, x1 = 0.4): 56.37 ± 0.12 | relative permittivity at zero frequency ([2]; 50000 kPa, x1 = 0.6): 50.55 ± 0.11 | relative permittivity at zero frequency ([2]; 50000 kPa, x1 = 0.8): 46.43 ± 0.1 | relative permittivity at zero frequency ([2]; 100000 kPa, x1 = 0.2): 66.28 ± 0.14 | relative permittivity at zero frequency ([2]; 100000 kPa, x1 = 0.4): 57.44 ± 0.12 | relative permittivity at zero frequency ([2]; 100000 kPa, x1 = 0.6): 51.5 ± 0.11 | relative permittivity at zero frequency ([2]; 100000 kPa, x1 = 0.8): 47.33 ± 0.1 | relative permittivity at zero frequency ([2]; 150000 kPa, x1 = 0.2): 67.44 ± 0.14 | relative permittivity at zero frequency ([2]; 150000 kPa, x1 = 0.4): 58.46 ± 0.12 | relative permittivity at zero frequency ([2]; 150000 kPa, x1 = 0.6): 52.42 ± 0.11 | relative permittivity at zero frequency ([2]; 150000 kPa, x1 = 0.8): 48.18 ± 0.1 | relative permittivity at zero frequency ([2]; 200000 kPa, x1 = 0.2): 68.55 ± 0.15 | relative permittivity at zero frequency ([2]; 200000 kPa, x1 = 0.4): 59.43 ± 0.13 | relative permittivity at zero frequency ([2]; 200000 kPa, x1 = 0.6): 53.29 ± 0.11 | relative permittivity at zero frequency ([2]; 200000 kPa, x1 = 0.8): 48.99 ± 0.1 | relative permittivity at zero frequency ([2]; 250000 kPa, x1 = 0.2): 69.62 ± 0.15 | relative permittivity at zero frequency ([2]; 250000 kPa, x1 = 0.4): 60.37 ± 0.13 | relative permittivity at zero frequency ([2]; 250000 kPa, x1 = 0.6): 54.14 ± 0.11 | relative permittivity at zero frequency ([2]; 250000 kPa, x1 = 0.8): 49.77 ± 0.11 | relative permittivity at zero frequency ([2]; 300000 kPa, x1 = 0.2): 70.65 ± 0.15 | relative permittivity at zero frequency ([2]; 300000 kPa, x1 = 0.4): 61.28 ± 0.13 | relative permittivity at zero frequency ([2]; 300000 kPa, x1 = 0.6): 54.95 ± 0.12 | relative permittivity at zero frequency ([2]; 300000 kPa, x1 = 0.8): 50.53 ± 0.11

O [water] + OCCO
relative permittivity at zero frequency ([2]; 100 kPa, x2 = 0): 78.39 ± 0.17 | relative permittivity at zero frequency ([2]; 50000 kPa, x2 = 0): 80.18 ± 0.17 | relative permittivity at zero frequency ([2]; 100000 kPa, x2 = 0): 81.88 ± 0.17 | relative permittivity at zero frequency ([2]; 150000 kPa, x2 = 0): 83.47 ± 0.18 | relative permittivity at zero frequency ([2]; 200000 kPa, x2 = 0): 85.01 ± 0.18 | relative permittivity at zero frequency ([2]; 250000 kPa, x2 = 0): 86.48 ± 0.18 | relative permittivity at zero frequency ([2]; 300000 kPa, x2 = 0): 87.94 ± 0.19

Reference: the NIST ThermoML archive (doi:10.1021/je050353j)
